Test system: HBsAg
Test: HBsAg assay
Assay type: cell-based, hepatitis B virus
Settings: Hepatitis B virus, HepG2.2.15, 144 h, read-out: sAg EC50, μM, HepG2.2.15 cells, day 6
Description: Inhibition of HBsAg was determined in HepG2.2.15 cells. Cells were maintained in culture medium containing 10% fetal calf serum, […], Glutamine, penicillin/streptomycin. Cells were seeded in 96-well collagen-coated plate at a density of 30,000 cells/well. Serially diluted compounds were added to cells next day at the final DMSO concentration of 0.5%. Cells were incubated with compounds for 2-3 days, after which medium was removed. Fresh medium containing compounds was added to cells for additional 3-4 days. At day 6 after exposure of compounds, supernatant was collected, the HBsAg immunoassay (microplate-based chemiluminescence immunoassay kits, CLIA, Autobio Diagnosics Co., Zhengzhou, China, Catalog # CL0310-2) was used to determine the level of HBsAg according to manufactory instruction. Dose-response curves were generated and the EC50 value (effective concentrations that achieved 50% inhibitory effect) were determined using XLfit software. In addition, cells were seeded at a density of 5,000 cells/well for determination of cell viability in the presence and absence of compounds by using CellTiter-Glo reagent (Promega). Tables 1-3 show EC50 values obtained by the HBsAg assay for selected compounds.

Point of comparison: `COc1cc2c(cn1)-c1cc(=O)c(C(=O)O)cn1C(C(C)C)C2` (stereo not drawn) [Example 86, 6-isopropyl-3-methoxy-10-oxo-5,10-dihydro-6H-pyrido[2,1-a][2,7]naphthyridine-9-carboxylic acid], EC50 1 µM. Against it:
- CCOCCOc1cc2c(cc1C)-c1cc(=O)c(C(=O)O)cn1[C@H](C(C)C)CO2 [Example 55, (R)-3-(2-Ethoxyethoxy)-7-isopropyl-2-methyl-11-oxo-6,7-dihydro-11H-benzo[f]pyrido[1,2-d][1,4]oxazepine-10-carboxylic acid] — 7.7-fold lower, 0.13 µM
- CCc1cc2c(cc1OCCCO)OC[C@@H](C(C)C)n1cc(C(=O)O)c(=O)cc1-2 [Example 56, (R)-2-Ethyl-3-(3-hydroxypropoxy)-7-isopropyl-11-oxo-6,7-dihydro-111H-benzo[f]pyrido[1,2-d][1,4]oxazepine-10-carboxylic acid] — 38-fold lower, 0.026 µM
- CCOCCOc1cc2c(cc1CC)-c1cc(=O)c(C(=O)O)cn1[C@H](C(C)C)CO2 [Example 57, (R)-3-(2-Ethoxyethoxy)-2-ethyl-7-isopropyl-11-oxo-6,7-dihydro-111H-benzo[f]pyrido[1,2-d][1,4]oxazepine-10-carboxylic acid] — 29-fold lower, 0.034 µM
- CCc1cc2c(cc1OCC(F)(F)F)OC[C@@H](C(C)C)n1cc(C(=O)O)c(=O)cc1-2 [Example 58, (R)-2-Ethyl-7-isopropyl-11-oxo-3-(2,2,2-trifluoroethoxy)-6,7-dihydro-11H-benzo[f]pyrido[1,2-d][1,4]oxazepine-10-carboxylic acid] — 48-fold lower, 0.021 µM
- Cc1cc2c(cc1OCC(F)(F)F)OC[C@@H](C(C)C)n1cc(C(=O)O)c(=O)cc1-2 [Example 59, (R)-7-Isopropyl-2-methyl-11-oxo-3-(2,2,2-trifluoroethoxy)-6,7-dihydro-11H-benzo[f]pyrido[1,2-d][1,4]oxazepine-10-carboxylic acid] — 11-fold lower, 0.089 µM
- Cc1cc2c(cc1OCCCO)OC[C@@H](C(C)C)n1cc(C(=O)O)c(=O)cc1-2 [Example 60, (R)-3-(3-Hydroxypropoxy)-7-isopropyl-2-methyl-11-oxo-6,7-dihydro-11H-benzo[f]pyrido[1,2-d][1,4]oxazepine-10-carboxylic acid] — 18-fold lower, 0.057 µM
- COCCCNc1cc2c(cc1Cl)-c1cc(=O)c(C(=O)O)cn1[C@H](C(C)C)CO2 [Example 61, (R)-2-Chloro-7-isopropyl-3-((3-methoxypropyl)amino)-11-oxo-6,7-dihydro-11H-benzo[f]pyrido[1,2-d][1,4]oxazepine-10-carboxylic acid] — 43-fold lower, 0.023 µM
- CC(C)[C@@H]1COc2cc(N3CCOCC3)c(Cl)cc2-c2cc(=O)c(C(=O)O)cn21 [Example 62, (R)-2-Chloro-7-isopropyl-3-morpholino-11-oxo-6,7-dihydro-11H-benzo[f]pyrido[1,2-d][1,4]oxazepine-10-carboxylic acid] — 4.8-fold lower, 0.21 µM
- COCCCN(C)c1cc2c(cc1Cl)-c1cc(=O)c(C(=O)O)cn1[C@H](C(C)C)CO2 [Example 63, (R)-2-Chloro-7-isopropyl-3-((3-methoxypropyl)(methyl)amino)-11-oxo-6,7-dihydro-11H-benzo[f]pyrido[1,2-d][1,4]oxazepine-10-carboxylic acid] — 33-fold lower, 0.03 µM
- COCCNc1cc2c(cc1Cl)-c1cc(=O)c(C(=O)O)cn1[C@H](C(C)C)CO2 [Example 64, (R)-2-Chloro-7-isopropyl-3-((2-methoxyethyl)amino)-11-oxo-6,7-dihydro-11H-benzo[f]pyrido[1,2-d][1,4]oxazepine-10-carboxylic acid] — 15-fold lower, 0.066 µM
- COCCN(C)c1cc2c(cc1Cl)-c1cc(=O)c(C(=O)O)cn1[C@H](C(C)C)CO2 [Example 65, (R)-2-Chloro-7-isopropyl-3-((2-methoxyethyl)(methyl)amino)-11-oxo-6,7-dihydro-11H-benzo[f]pyrido[1,2-d][1,4]oxazepine-10-carboxylic acid] — 3.7-fold lower, 0.27 µM
- COCCCOc1cc2c(nc1Cl)-c1cc(=O)c(C(=O)O)cn1[C@H](C(C)(C)C)CO2 [Example 66, (R)-7-(Tert-butyl)-2-chloro-3-(3-methoxypropoxy)-11-oxo-6,7-dihydro-11H-dipyrido[1,2-d:2′,3′-f][1,4]oxazepine-10-carboxylic acid] — 500-fold lower, 0.002 µM
- COCCCOc1cc2c(nc1C1CC1)-c1cc(=O)c(C(=O)O)cn1[C@H](C(C)(C)C)CO2 [Example 67, (R)-7-(Tert-butyl)-2-cyclopropyl-3-(3-methoxypropoxy)-11-oxo-6,7-dihydro-11H-dipyrido[1,2-d:2′,3′-f][1,4]oxazepine-10-carboxylic acid] — 1100-fold lower, 0.0009 µM
- COCCCOc1cc2c(nc1Cl)-c1cc(=O)c(C(=O)O)cn1[C@H](C(C)C)CO2 [Example 68, (R)-2-Chloro-7-isopropyl-3-(3-methoxypropoxy)-11-oxo-6,7-dihydro-11H-dipyrido[1,2-d:2′,3′-f][1,4]oxazepine-10-carboxylic acid] — 59-fold lower, 0.017 µM
- COCCCOc1cc2c(nc1Cl)-c1cc(=O)c(C(=O)O)cn1C1(CCCCC1)CO2 [Example 69, 2′-Chloro-3′-(3-methoxypropoxy)-1′-oxo-6′H,11′H-spiro[cyclohexane-1,7′-dipyrido[1,2-d:2′,3′-f][1,4]oxazepine]-10′-carboxylic acid] — 48-fold lower, 0.021 µM
- COCCCOc1cc2c(nc1Cl)-c1cc(=O)c(C(=O)O)cn1C1(CCCC1)CO2 [Example 70, 2′-Chloro-3′-(3-methoxypropoxy)-11′-oxo-6′H,11′H-spiro[cyclopentane-1,7′-dipyrido[1,2-d:2′,3′-f][1,4]oxazepine]-10′-carboxylic acid] — 24-fold lower, 0.041 µM
- COCCCOc1cc2c(nc1Cl)-c1cc(=O)c(C(=O)O)cn1C1(COC1)CO2 [Example 71, 2-Chloro-3-(3-methoxypropoxy)-1-oxo-6H,11H-spiro[dipyrido[1,2-d:2′,3′-f][1,4]oxazepine-7,3′-oxetane]-10-carboxylic acid] — 30-fold higher, 30 µM
- COCCCOc1cc2c(nc1Cl)-c1cc(=O)c(C(=O)O)cn1C1(CO2)CC(C)(C)C1 [Example 72, 2′-Chloro-3′-(3-methoxypropoxy)-3,3-dimethyl-11′-oxo-6′H,11′H-spiro[cyclobutane-1,7′-dipyrido[1,2-d:2′,3′-f][1,4]oxazepine]-10′-carboxylic acid] — 5.6-fold lower, 0.18 µM
- COCCCOc1cc2c(nc1Cl)-c1cc(=O)c(C(=O)O)cn1C1(CO2)CC(C)C1 (stereo not drawn) [Example 73, 2′-Chloro-3′-(3-methoxypropoxy)-3-methyl-11′-oxo-6′H,11′H-spiro[cyclobutane-1,7′-dipyrido[1,2-d:2′,3′-f][1,4]oxazepine]-10′-carboxylic acid] — 3.8-fold lower, 0.26 µM
- COCCCOc1cc2c(nc1Cl)-c1cc(=O)c(C(=O)O)cn1C1(CCSCC1)CO2 [Example 74, 2-Chloro-3-(3-methoxypropoxy)-11-oxo-2′,3′,5′,6′-tetrahydro-6H,11H-spiro[dipyrido[1,2-d:2′,3′-f][1,4]oxazepine-7,4′-thiopyran]-10-carboxylic acid] — 5-fold higher, 5 µM
- COc1cc2c(nc1Cl)-c1cc(=O)c(C(=O)O)cn1[C@H](C(C)C)CO2 [Example 75, (R)-2-Chloro-7-isopropyl-3-methoxy-11-oxo-6,7-dihydro-11H-dipyrido[1,2-d:2′,3′-f][1,4]oxazepine-10-carboxylic acid] — 38-fold lower, 0.026 µM
- CC(C)COc1cc2c(nc1C1CC1)-c1cc(=O)c(C(=O)O)cn1[C@H](C(C)C)CO2 [Example 76, (R)-2-Cyclopropyl-3-isobutoxy-7-isopropyl-11-oxo-6,7-dihydro-11H-dipyrido[1,2-d:2′,3′-f][1,4]oxazepine-10-carboxylic acid] — within 1.5-fold, 0.86 µM
- CC(C)[C@@H]1COc2cc(OCc3ccccc3)c(Cl)nc2-c2cc(=O)c(C(=O)O)cn21 [Example 77, (R)-3-(Benzyloxy)-2-chloro-7-isopropyl-11-oxo-6,7-dihydro-11H-dipyrido[1,2-d:2′,3′-f][1,4]oxazepine-10-carboxylic acid] — 3.2-fold higher, 3.2 µM
- CC(C)[C@@H]1COc2cc(O)c(Cl)nc2-c2cc(=O)c(C(=O)O)cn21 [Example 78, (R)-2-Chloro-3-hydroxy-7-isopropyl-11-oxo-6,7-dihydro-11H-dipyrido[1,2-d:2′,3′-f][1,4]oxazepine-10-carboxylic acid] — 5-fold higher, 5 µM
- CC(C)COc1cc2c(nc1Cl)-c1cc(=O)c(C(=O)O)cn1[C@H](C(C)C)CO2 [Example 79, (R)-2-Chloro-3-isobutoxy-7-isopropyl-11-oxo-6,7-dihydro-11H-dipyrido[1,2-d:2′,3′-f][1,4]oxazepine-10-carboxylic acid] — within 1.5-fold, 0.79 µM
- COCCCOc1cc2c(nc1Cl)-c1cc(=O)c(C(=O)O)cn1[C@H](CCO)CO2 [Example 80, (R)-2-Chloro-7-(2-hydroxyethyl)-3-(3-methoxypropoxy)-11-oxo-6,7-dihydro-11H-dipyrido[1,2-d:2′,3′-f][1,4]oxazepine-10-carboxylic acid] — 3.8-fold lower, 0.26 µM
- COCCCOc1cc2c(nc1Cl)-c1cc(=O)c(C(=O)O)cn1C1C(CCC1(C)C)O2 (stereo not drawn) [Example 81, 6-Chloro-7-(3-methoxypropoxy)-12,12-dimethyl-3-oxo-9a,11,12,12a-tetrahydro-3H,10H-cyclopenta[b]dipyrido[1,2-d:2′,3′-f][1,4]oxazepine-2-carboxylic acid] — 91-fold lower, 0.011 µM
- CC(C)C1Cc2sccc2-c2cc(=O)c(C(=O)O)cn21 (stereo not drawn) [Example 84, 5-Isopropyl-9-oxo-4,9-dihydro-5H-thieno[3,2-a]quinolizine-8-carboxylic acid] — 3.2-fold higher, 3.2 µM
- CC(C)C1Cc2sc(Cl)cc2-c2cc(=O)c(C(=O)O)cn21 (stereo not drawn) [Example 85, 2-Chloro-5-isopropyl-9-oxo-4,9-dihydro-5H-thieno[3,2-a]quinolizine-8-carboxylic acid] — 16-fold higher, 16 µM

Reference: US11013726B2 (Arbutus Biopharma Corporation, priority 2016, dated 2021)
